Laboratory results from patent US9833497B2, “Human originated EGF domain proteins and use of the same” (CHENGDU SOURCEBIO LIMITED-LIABILITY COMPANY, priority 2013, dated 2017).

Tests used:
Assay type in all cases: cell-based
E. coli DH5α = experiment: Antibacterial activity: MIC and growth curve against E. coli DH5α in 96-well plate; conditions: minimal inhibitory concentration against E. coli DH5α; 96-well plate, 5×10^5 CFU/mL, 37° C., judged after 8 h
Procedure, shortened: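 Log-phase DH5α (OD600 about 0.5, 37° C, 185 rpm in LB) was pelleted, resuspended in fresh LB and seeded at 5×10^5 CFU/mL with recombinant protein at 50, 25 and 12.5 μg/mL (two-fold series), in triplicate. Plates were shaken at 175 rpm, 37° C, and OD600 was read every 30 min. MIC was the lowest concentration with no growth.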

E. coli BL21 = experiment: MIC against Gram-negative bacteria: E. coli BL21; conditions: 5×10^5 CFU/mL; for MIC against E. coli BL21 / MIC E. coli BL21: 96-well plate, 37° C., 10 h
Procedure, shortened: (§1)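 Inocula prepared by growing LB cultures at 37° C to 0.5 McFarland, centrifuging at 4000×g, and resuspending in fresh medium. Final density 5×10^5 CFU/mL per well with two-fold dilutions of purified EGF domain protein; shaking incubation at 37° C.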

Pseudomonas aeruginosa = experiment: MIC against Gram-negative bacteria: Pseudomonas aeruginosa; conditions: 5×10^5 CFU/mL; for MIC against P. aeruginosa / MIC P. aeruginosa: 96-well plate, 37° C., 10 h
Procedure, shortened: as §1

Klebsiella pneumonia = experiment: MIC against Gram-negative bacteria: Klebsiella pneumonia; conditions: 5×10^5 CFU/mL; for MIC against K. pneumonia / MIC K. pneumonia: 96-well plate, 37° C., 10 h
Procedure, shortened: as §1

Enterobacter cloacae = experiment: MIC against Gram-negative bacteria: Enterobacter cloacae; conditions: 5×10^5 CFU/mL; for MIC against E. cloacae / MIC E. cloacae: 96-well plate, 37° C., 10 h
Procedure, shortened: as §1

Aeromonas hydrophila = experiment: MIC against Gram-negative bacteria: Aeromonas hydrophila; conditions: 5×10^5 CFU/mL; for MIC against A. hydrophila / MIC A. hydrophila: 96-well plate, 37° C., 10 h
Procedure, shortened: as §1

Citrobacter diversus = experiment: MIC against Gram-negative bacteria: Citrobacter diversus; conditions: 5×10^5 CFU/mL; for MIC against C. diversus / MIC C. diversus: 96-well plate, 37° C., 10 h
Procedure, shortened: as §1

Moraxella catarrhalis = experiment: MIC against Gram-negative bacteria: Moraxella catarrhalis; conditions: 5×10^5 CFU/mL; for MIC against M. catarrhalis / MIC M. catarrhalis: 96-well plate, 37° C., 10 h
Procedure, shortened: as §1

Proteus mirabilis = experiment: MIC against Gram-negative bacteria: Proteus mirabilis; conditions: 5×10^5 CFU/mL; for MIC against P. mirabilis / MIC P. mirabilis: 96-well plate, 37° C., 10 h
Procedure, shortened: as §1

Proteus vulgaris = experiment: MIC against Gram-negative bacteria: Proteus vulgaris; conditions: 5×10^5 CFU/mL; for MIC against P. vulgaris / MIC P. vulgaris: 96-well plate, 37° C., 10 h
Procedure, shortened: as §1

Serratia marcescens = experiment: MIC against Gram-negative bacteria: Serratia marcescens; conditions: 5×10^5 CFU/mL; for MIC against S. marcescens / MIC S. marcescens: 96-well plate, 37° C., 10 h
Procedure, shortened: as §1

PRT1242 (WGPECQQQCECVRGRCSAASGECTCPPGFRGARCE; listed as Homo sapiens)
MIC (E. coli DH5α): 25 µg/mL
MIC against E. coli BL21 (E. coli BL21; E. coli BL21): 50 µg/mL
MIC against P. aeruginosa (Pseudomonas aeruginosa; Pseudomonas aeruginosa): 25 µg/mL
MIC against K. pneumonia (Klebsiella pneumonia; Klebsiella pneumonia): 12.5 µg/mL
MIC against E. cloacae (Enterobacter cloacae; Enterobacter cloacae): 25 µg/mL
MIC against A. hydrophila (Aeromonas hydrophila; Aeromonas hydrophila): 25 µg/mL
MIC against C. diversus (Citrobacter diversus; Citrobacter diversus): 50 µg/mL
MIC against M. catarrhalis (Moraxella catarrhalis; Moraxella catarrhalis): 25 µg/mL
MIC against P. mirabilis (Proteus mirabilis; Proteus mirabilis): 12.5 µg/mL
MIC against P. vulgaris (Proteus vulgaris; Proteus vulgaris): 25 µg/mL
MIC against S. marcescens (Serratia marcescens; Serratia marcescens): 50 µg/mL

PRT668 (DINECRHPGTCPDGRCVNSPGSYTCLACEEGYRGQSGSCV; listed as Homo sapiens)
MIC (E. coli DH5α): 12.5 µg/mL
MIC E. coli BL21 (E. coli BL21): 50 µg/mL
MIC P. aeruginosa (Pseudomonas aeruginosa): 12.5 µg/mL
MIC K. pneumonia (Klebsiella pneumonia): 50 µg/mL
MIC E. cloacae (Enterobacter cloacae): 12.5 µg/mL
MIC A. hydrophila (Aeromonas hydrophila): 50 µg/mL
MIC C. diversus (Citrobacter diversus): 100 µg/mL
MIC M. catarrhalis (Moraxella catarrhalis): 25 µg/mL
MIC P. mirabilis (Proteus mirabilis): 25 µg/mL
MIC P. vulgaris (Proteus vulgaris): 50 µg/mL
MIC S. marcescens (Serratia marcescens): 100 µg/mL

PRT600 (CDCNPLGSLPFLTCDVDTGQCLCLSYVTGAHCEECTVGYWGLGNHLHGCSP; listed as Homo sapiens)
MIC (E. coli DH5α): 25 µg/mL
MIC E. coli BL21 (E. coli BL21): 12.5 µg/mL
MIC P. aeruginosa (Pseudomonas aeruginosa): 25 µg/mL
MIC K. pneumonia (Klebsiella pneumonia): 50 µg/mL
MIC E. cloacae (Enterobacter cloacae): 25 µg/mL
MIC A. hydrophila (Aeromonas hydrophila): 12.5 µg/mL
MIC C. diversus (Citrobacter diversus): 25 µg/mL
MIC M. catarrhalis (Moraxella catarrhalis): 50 µg/mL
MIC P. mirabilis (Proteus mirabilis): 25 µg/mL
MIC P. vulgaris (Proteus vulgaris): 12.5 µg/mL
MIC S. marcescens (Serratia marcescens): 25 µg/mL

PRT870 (CECFGHSNRCSYIDLLNTVICVSCKHNTRGQHCELCRLGYFRNASAQLDDENVCIE; listed as Homo sapiens)
MIC (E. coli DH5α): 12.5 µg/mL
MIC (μg/mL) E. coli BL21 (E. coli BL21; E. coli BL21, 10 h cultivation at 37° C.): 50 µg/mL
MIC (μg/mL) P. aeruginosa (Pseudomonas aeruginosa; P. aeruginosa, 10 h cultivation at 37° C.): 100 µg/mL
MIC (μg/mL) K. pneumonia (Klebsiella pneumonia; K. pneumonia, 10 h cultivation at 37° C.): 50 µg/mL
MIC (μg/mL) E. cloacae (Enterobacter cloacae; E. cloacae, 10 h cultivation at 37° C.): 25 µg/mL
MIC (μg/mL) A. hydrophila (Aeromonas hydrophila; A. hydrophila, 10 h cultivation at 37° C.): 12.5 µg/mL
MIC (μg/mL) C. diversus (Citrobacter diversus; C. diversus, 10 h cultivation at 37° C.): 25 µg/mL
MIC (μg/mL) M. catarrhalis (Moraxella catarrhalis; M. catarrhalis, 10 h cultivation at 37° C.): 50 µg/mL
MIC (μg/mL) P. mirabilis (Proteus mirabilis; P. mirabilis, 10 h cultivation at 37° C.): 25 µg/mL
MIC (μg/mL) P. vulgaris (Proteus vulgaris; P. vulgaris, 10 h cultivation at 37° C.): 12.5 µg/mL
MIC (μg/mL) S. marcescens (Serratia marcescens; S. marcescens, 10 h cultivation at 37° C.): 50 µg/mL

PRT459 (RTAKCEPACRHGGVCVRPNKCLCKKGYLGPQCE; listed as Homo sapiens)
MIC (E. coli DH5α): 25 µg/mL
MIC against E. coli BL21 (E. coli BL21): 12.5 µg/mL
MIC against P. aeruginosa (Pseudomonas aeruginosa): 25 µg/mL
MIC against K. pneumonia (Klebsiella pneumonia): 50 µg/mL
MIC against E. cloacae (Enterobacter cloacae): 25 µg/mL
MIC against A. hydrophila (Aeromonas hydrophila): 12.5 µg/mL
MIC against C. diversus (Citrobacter diversus): 25 µg/mL
MIC against M. catarrhalis (Moraxella catarrhalis): 50 µg/mL
MIC against P. mirabilis (Proteus mirabilis): 25 µg/mL
MIC against P. vulgaris (Proteus vulgaris): 12.5 µg/mL
MIC against S. marcescens (Serratia marcescens): 25 µg/mL
